The structures appear in SMILES notation.

For 3 compounds, EC50 results are on record in patent US20250051316A1, “2-(ARYL-2-YL) […] […], PREPARATION METHOD THEREFOR AND APPLICATION THEREOF” (SHANGHAI HANSOH BIOMEDICAL CO., LTD., priority 2021, published 2025).

This experiment concerns the target T1, ADRA1A receptor (Homo sapiens, UniProt P35348).
T1 construct: expressed in transfected cells
T1 sequence (P35348 1-466): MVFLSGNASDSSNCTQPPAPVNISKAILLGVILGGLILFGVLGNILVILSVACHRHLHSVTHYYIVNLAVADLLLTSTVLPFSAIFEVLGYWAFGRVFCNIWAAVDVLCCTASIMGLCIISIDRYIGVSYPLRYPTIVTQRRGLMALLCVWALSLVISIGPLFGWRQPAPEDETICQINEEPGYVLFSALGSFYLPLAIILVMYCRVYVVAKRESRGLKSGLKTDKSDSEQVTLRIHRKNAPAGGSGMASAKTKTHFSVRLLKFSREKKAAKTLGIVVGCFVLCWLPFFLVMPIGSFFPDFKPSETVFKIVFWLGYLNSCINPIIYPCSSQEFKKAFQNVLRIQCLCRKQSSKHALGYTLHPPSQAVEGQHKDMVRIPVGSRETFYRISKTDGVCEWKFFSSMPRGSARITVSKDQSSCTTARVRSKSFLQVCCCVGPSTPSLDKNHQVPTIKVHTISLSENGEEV
The experiment is described as follows: Effect on calcium current in cells which stably express ADRA1A receptor. Format: cell-based. The method, then:
Test Example 4. Determination of the Effect of the Present Compounds on Calcium Current in the Cells which Stably Express ADRA1A Receptor
Determination of the activation effect of the compounds on ADRA1A receptors.
1) Flp In-CHO-ADRA1A Stable Pool cell lines were cultured in complete medium at 37° C., 5% CO2 to 70%-90% fusion.
2) Complete culture medium: Ham's F12K+10% FBS+1*Penicillin−Streptomycin+600 μg/mL Hygromycin B; Cell inoculation medium: Ham's F12K++10% FBS; Experimental buffer: 1×HBSS+20 mM HEPES
3) After TrypLE digestion, the cells were re-suspended in the inoculation medium and inoculated in 384 well cell culture plate (Corning, 3764). 7000 cells were inoculated into each well and incubated overnight at 37° C. and 5% CO2.
4) 20× Component A was freeze-thaw to room temperature, and then diluted with experimental buffer to 2× working concentration including 5 mM Probenecid, which was then placed at room temperature for use.
5) The cell culture plate was taken out, and let to stand at room temperature for 10 minutes. The plate was subject to inverted centrifugation at 200 g, and RT centrifugation for 1 second, and then 20 μL Assay buffer was quickly added to the cell culture plate. Then 20 μL 2× Component A containing 5 mM Probenecid was added to each experimental well, which was centrifuged by RT at 200 g for 3-5 seconds, and incubated at 37° C. for 2 hours.
6) The working solution (5×) for the compound to be tested was prepared and placed and at room temperature for use.
7) The cell culture plate was taken out and let to stand at room temperature for 10 minutes.
8) 10 μL diluteSd compound working solution in step 6) was added to each the experimental well using FLIPR Tetra and data were collected.
[formula] • 5) EC50 of the compounds was calculated by GraphPad nonlinear fitting formula:
[formula] • X: Log value of the compound concentration; Y: Activation %
`[2H]C1([2H])CO[C@H](c2ccc(F)cc2)CN1` (single isomer, unassigned) [Example 33-1, 2-(4-Fluorophenyl)morpholin-5,5-d2]: the EC50 amounted to 1.41 µM.

With `[2H]C1([2H])CO[C@@H](c2ccc(F)cn2)CN1` (single isomer, unassigned) [Example 17-2, 2-(5-fluoropyridin-2-yl)morpholin-5,5-d2], the EC50 was determined as 3.17 µM.

As to `[2H]C1([2H])COC(c2cccc(C)n2)CN1` (single isomer, unassigned) [Example 10-2, 2-(6-Methylpyridin-2-yl)morpholin-5,5-d2], the EC50 is 1.17 µM.
